Where two headings read alike, the source gives them in different places.
Tests used:
[1] = biological target: T1, CMV DNA polymerase (Human cytomegalovirus, UniProt P08546); format: biochemical; settings: extracts of VHL/E-infected HUVEC or P8-infected HFF; PFA result at 1 mM
T1 construct: Crude protein extracts prepared from CMV-infected HUVEC or HFF; endogenous in cells; host or cells: HUVEC infected with CMV VHL/E or BUR/E, and HFF infected with CMV P8; Cells were sonicated and the clarified crude lysate was used

[2] = test system: CMV strain VHL/E; assay: Immunohistochemical staining of CMV proteins in infected HUVEC; format: cell-based
Procedure: Experiments were conducted to determine at which point in the viral replication cycle leflunomide exerts its inhibitory effects. Immediately upon penetration of the host cell, CMV lower matrix protein pp65, a component of the viral tegument, translocates to the cell nucleus. Although the nuclear function of pp65 remains to be resolved, another tegument protein (pp71) that migrates in a similar manner acts in concert with cellular proteins to promote rapid transcription of immediate early (IE) viral genes. IE gene products are primarily regulatory, activating early gene transcription, whose products are essential for viral DNA replication. Activation of late genes, which code primarily for structural protein components of the virion, occurs late in the replicative cycle and is dependent upon viral DNA replication.
To localize potential A771726-induced lesions in this temporal series of events, a cross section of CMV proteins in infected cells was first visualized by immunohistochemical staining as follows. CMV strain VHL/E-inoculated HUVEC monolayers incubated in the presence or absence of 200 µM A771726 or 1 mM phosphonoformate (PFA) (as a positive control for late antigen inhibition) were fixed at various intervals and stained with mAb specific for pp65, 72 kD IE1, or late structural glycoprotein B (gB). […]

[3] = in vivo; cited from earlier work
[4] = test system: CMV DNA; format: cell-based; settings: CMV-infected HFF (100 µM A771726) , identical in HUVEC (200 µM); 1 mM PFA; 48 hours
[5] = test system: CMV strain VHL/E or strain BUR/E; format: cell-based; settings: HUVEC, A771726 200 µM, CsA 100 ng/ml, FK 506 1 ng/ml
[6] = test system: rat CMV (RCMV RA67, Maastricht strain); assay: Viral load in nude rats inoculated with rat CMV, plaque assay of tissue homogenates; format: in vivo, immunodeficient nude rats; settings: leflunomide 15 mg/kg/day for 14 days, 14 days post-inoculation
[7] = test system: hepatitis C; assay: Clinical treatment of a patient with chronic hepatitis C, viral load by quantitative PCR; format: in vivo, human
Procedure: The patient is a person who received a liver transplant in January 1990 for hepatitis C. Over the following nine years they developed indolent hepatitis C with mildly elevated liver enzymes. Because of slowly progressive kidney impairment, presumably related to a combination of chronic hepatitis C and long term cyclosporine A treatment, they were started on leflunomide treatment. […] After an initial leflunomide loading dose of 300 mg daily for two days, a maintenance dose of 50 mg daily was started.
As the new treatment regimen was implemented, their kidney function improved; their serum creatinine fell from 3.6 mg/dl to 2.2 mg/dl and their BUN fell from 94 mg/dl to 55 mg/dl. Just before leflunomide was begun their hepatitis C viral load in peripheral blood was 3,120,000 copies, measured by quantitative PCR (Quest Diagnostics). After six weeks of therapy with leflunomide, their hepatitis C viral load had fallen to 1,480,000 copies, measured by the same PCR methodology.

[8] = test system: Measles Virus; assay: microbe, parasite or virus in culture; format: cell-based; settings: Measles morbillivirus, CV-1; read-out: CPE Inhibition test EC50
[9] = test system: Parainfluenza Type 3 Virus; assay: organism not typed; format: cell-based; settings: MA104; read-out: Neutral Red Uptake test EC50
[10] = test system: Madin Darby canine kidney (MDCK) cells; assay: cells; format: cell-based; settings: Canis lupus familiaris, cytotoxic concentration, positive control drug = ribavirin, read-out: Neutral Red Uptake test IC50
[11] = test system: African green monkey kidney (MA-104) cells; assay: Cytotoxicity, neutral red uptake by toxicity control cells; format: cell-based; settings: Chlorocebus sabaeus, read-out: Neutral Red Uptake test IC50
[12] = test system: Respiratory Syncytial Virus A; assay: microbe, parasite or virus in culture; format: cell-based; settings: human respiratory syncytial virus, MA104; read-out: CPE Inhibition test EC50
[13] = test system: Respiratory Syncytial Virus A; assay: microbe, parasite or virus in culture; format: cell-based; settings: human respiratory syncytial virus, MA104; read-out: Neutral Red Uptake test EC50
[14] = test system: African green monkey kidney (CV-1) cells; assay: cells; format: cell-based; settings: Chlorocebus sabaeus, read-out: CPE Inhibition test IC50
[15] = test system: African green monkey kidney (MA-104) cells; assay: cells; format: cell-based; settings: Chlorocebus sabaeus, MA104, cytotoxic concentration, positive control drug = ribavirin, read-out: CPE Inhibition test IC50
[16] = test system: African green monkey kidney (CV-1) cells; assay: cells; format: cell-based; settings: Chlorocebus sabaeus, read-out: Neutral Red Uptake test IC50
[17] = test system: Parainfluenza Type 3 Virus; assay: organism not typed; format: cell-based; settings: MA104; read-out: CPE Inhibition test EC50
[18] = test system: Madin Darby canine kidney (MDCK) cells; assay: cells; format: cell-based; settings: Canis lupus familiaris, cytotoxic concentration, positive control drug = ribavirin, read-out: CPE Inhibition test IC50
[19] = test system: Measles Virus; assay: microbe, parasite or virus in culture; format: cell-based; settings: Measles morbillivirus, CV-1; read-out: Neutral Red Uptake test EC50
[20] = test system: uninfected cells; assay: Cytotoxicity, neutral red uptake by toxicity control cells (rhinovirus host cells, not named); format: cell-based; settings: read-out: Neutral Red Uptake test IC50
Procedure: (§1) Cytotoxicity of each test compound is also evaluated as follows. In the initial CPE inhibition tests, two wells of uninfected cells treated with each concentration of test compound are run in parallel with the infected, treated wells. When the CPE is determined microscopically, the toxicity control cells are also examined microscopically for any changes in cell appearance compared to normal uninfected, untreated control cells. Changes, which may manifest as enlargement, granularity, ragged edges, filmy appearance, rounding, detachment from the surface of the well, or other changes, are given a designation of T (100% toxic), PVH (partially toxic-very heavy-80%), PH (partially toxic-heavy-60%), P (partially toxic-40%), PS (partially toxic-slight-20%) or 0 (no toxicity-0%) in accordance with the degree of cytotoxicity observed. […] A neutral red IC50 is also determined based on uptake of neutral red dye by the toxicity control cells.

[21] = test system: uninfected cells; assay: Cytotoxicity, microscopic reading of uninfected cells in the CPE inhibition test (rhinovirus host cells, not named); format: cell-based
Procedure: as §1

[22] = test system: Adenovirus Type 1; assay: microbe, parasite or virus in culture; format: cell-based; settings: Human mastadenovirus C, A549; read-out: Neutral Red Uptake test EC50
[23] = test system: Adenovirus Type 1; assay: microbe, parasite or virus in culture; format: cell-based; settings: Human mastadenovirus C, A549; read-out: CPE Inhibition test EC50
[24] = test system: Rhinovirus Type 5; assay: Neutral red uptake test; format: cell-based; settings: Enterovirus, read-out: Neutral Red Uptake test EC50
Text: Environment. Microbiol, 31:35-38, 1976).

[25] = test system: Rhinovirus Type 5; assay: microbe, parasite or virus in culture; format: cell-based; settings: Enterovirus; read-out: CPE Inhibition test EC50
[26] = test system: human lung carcinoma (A549) cells; assay: cells; format: cell-based; settings: read-out: CPE Inhibition test IC50
[27] = MA104, cytotoxic concentration, run with Parainfluenza Type 3 Virus, positive control drug = ribavirin
[28] = run with Respiratory Syncytial Virus A

T1 sequence (P16790 whole entry): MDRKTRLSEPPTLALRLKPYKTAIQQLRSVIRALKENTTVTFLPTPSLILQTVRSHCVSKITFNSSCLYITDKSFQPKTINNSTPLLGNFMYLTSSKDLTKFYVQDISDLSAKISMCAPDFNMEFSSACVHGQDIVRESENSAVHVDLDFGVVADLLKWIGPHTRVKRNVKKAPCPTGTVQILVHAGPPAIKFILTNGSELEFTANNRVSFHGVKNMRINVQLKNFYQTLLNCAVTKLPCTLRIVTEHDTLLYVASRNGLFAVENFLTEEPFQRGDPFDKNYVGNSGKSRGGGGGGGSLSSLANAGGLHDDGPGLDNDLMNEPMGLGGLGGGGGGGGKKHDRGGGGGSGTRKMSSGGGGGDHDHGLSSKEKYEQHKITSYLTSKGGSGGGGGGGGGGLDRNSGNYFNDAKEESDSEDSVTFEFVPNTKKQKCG
T1 sequence (P08546 whole entry): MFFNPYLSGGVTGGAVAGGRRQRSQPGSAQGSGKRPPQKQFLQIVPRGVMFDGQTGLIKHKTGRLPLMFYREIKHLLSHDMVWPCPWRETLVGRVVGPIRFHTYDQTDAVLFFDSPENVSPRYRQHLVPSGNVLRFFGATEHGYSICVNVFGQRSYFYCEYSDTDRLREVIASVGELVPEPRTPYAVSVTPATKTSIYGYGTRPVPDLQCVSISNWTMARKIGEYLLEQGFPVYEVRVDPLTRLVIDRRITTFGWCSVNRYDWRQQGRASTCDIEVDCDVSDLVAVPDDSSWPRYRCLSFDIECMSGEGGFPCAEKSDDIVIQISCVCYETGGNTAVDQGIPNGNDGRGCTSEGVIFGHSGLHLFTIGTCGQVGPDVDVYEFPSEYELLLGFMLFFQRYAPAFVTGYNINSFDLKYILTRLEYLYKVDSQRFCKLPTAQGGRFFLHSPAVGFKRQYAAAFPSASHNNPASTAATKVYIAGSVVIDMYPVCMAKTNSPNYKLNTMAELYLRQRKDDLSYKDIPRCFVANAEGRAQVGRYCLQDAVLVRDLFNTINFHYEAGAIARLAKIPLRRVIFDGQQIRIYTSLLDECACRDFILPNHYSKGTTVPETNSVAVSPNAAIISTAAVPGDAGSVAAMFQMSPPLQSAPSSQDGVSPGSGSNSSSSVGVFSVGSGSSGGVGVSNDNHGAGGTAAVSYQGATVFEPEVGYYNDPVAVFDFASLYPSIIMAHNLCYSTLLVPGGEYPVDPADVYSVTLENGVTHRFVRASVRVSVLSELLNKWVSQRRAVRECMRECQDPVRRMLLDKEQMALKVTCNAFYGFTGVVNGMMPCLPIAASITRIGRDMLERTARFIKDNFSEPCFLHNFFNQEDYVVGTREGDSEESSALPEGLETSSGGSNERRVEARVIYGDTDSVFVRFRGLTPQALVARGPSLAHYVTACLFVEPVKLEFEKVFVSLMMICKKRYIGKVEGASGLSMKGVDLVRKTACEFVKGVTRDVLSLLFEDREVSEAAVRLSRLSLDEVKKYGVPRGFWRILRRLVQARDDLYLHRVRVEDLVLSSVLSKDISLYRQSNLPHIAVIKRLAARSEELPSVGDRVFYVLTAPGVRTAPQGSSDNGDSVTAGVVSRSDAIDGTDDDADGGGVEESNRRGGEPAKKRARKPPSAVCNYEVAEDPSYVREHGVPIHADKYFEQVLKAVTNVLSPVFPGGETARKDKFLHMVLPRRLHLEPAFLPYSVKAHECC

| Structure (SMILES) | EC50 [8] [µM] | EC50 [9] [µM] | IC50 ([10]; run with Influenza A (H1N1)) [µM] | IC50 ([10]; run with Influenza A (H3N2)) [µM] | IC50 ([10]; run with Influenza B) [µM] | IC50 [11, 27] [µM] | IC50 ([11]; MA104) [µM] | EC50 [12] [µM] | EC50 [13] [µM] | IC50 [14] [µM] | IC50 [15, 28] [µM] | IC50 [16] [µM] | EC50 [17] [µM] | IC50 ([18]; run with Influenza A (H1N1)) [µM] | IC50 ([18]; run with Influenza A (H3N2)) [µM] | IC50 ([18]; run with Influenza B) [µM] | EC50 [19] [µM] | other results |
| --- | --- | --- | --- | --- | --- | --- | --- | --- | --- | --- | --- | --- | --- | --- | --- | --- | --- | --- |
| O=C([O-])P(=O)(O)O.[Na+] [PFA, sodium phosphonoformate] | – | – | – | – | – | – | – | – | – | – | – | – | – | – | – | – | – | viral DNA polymerase activity [1]: complete inhibition; expression of viral proteins pp65, IE1, gB ([2]; 200 µM A771726 or 1 mM PFA, 24, 48, 96 hours pi): unable to express gB; pp65 and IE1 expression ([2]; 1 mM PFA): unimpeded; toxicities (renal dysfunction, hypomagnesemia, hypokalemia, hypocalcemia, seizures, fever, rash), each, share of recipients [3]: more than 5%; quantities of viral DNA synthesized [4]: no detectable CMV DNA |
| C=CC[C@@H]1/C=C(\C)C[C@H](C)C[C@H](OC)[C@H]2O[C@@](O)(C(=O)C(=O)N3CCCC[C@H]3C(=O)O[C@H](/C(C)=C/[C@@H]3CC[C@@H](O)[C@H](OC)C3)[C@H](C)[C@@H](O)CC1=O)[C@H](C)C[C@@H]2OC [FK 506, tacrolimus] | – | – | – | – | – | – | – | – | – | – | – | – | – | – | – | – | – | production of infectious virus (CMV production) [5]: no significant inhibition |
| Cc1oncc1C(=O)Nc1ccc(C(F)(F)F)cc1 [leflunomide, N-(4-trifluoromethylphenyl)-5-methylisoxazol-4-carboxamide] | – | – | – | – | – | – | – | – | – | – | – | – | – | – | – | – | – | viral load in salivary gland, lung and spleen [6]: significantly reduced viral load; hepatitis C viral load in peripheral blood ([7]; after six weeks of leflunomide (300 mg daily two days, then 50 mg daily), 3,120,000 copies before): 1,480,000 copies; drop in hepatitis C viral load ([7]; one patient, six weeks of leflunomide therapy): 50% |
| Nc1ccn(C[C@@H](CO)OCP(=O)(O)O)c(=O)n1 [Cidofovir] | – | – | – | – | – | – | – | – | – | – | – | – | – | – | – | – | – | Neutropenia, share of recipients [3]: approximately 10% |
| Cc1oncc1C(=O)Nc1cccc(C(F)(F)F)c1 [Compound 99-127, N-(3-trifluoromethylphenyl)-5-methylisoxazol-4-carboxamide] | > 100 | > 100 | 66 | 46 | 60 | 15 | 20 | > 100 | > 100 | 60 | 30 | 30 | > 100 | > 200 | 63 | > 200 | > 100 | – |
| Cc1nocc1C(=O)Nc1ccc(C(F)(F)F)cc1 [Compound 99-126, N-(4-trifluoromethylphenyl)-3-methylisoxazol-4-carboxamide] | 10 | 20 | 48 | 30 | 46 | 20 | 30 | > 100 | > 100 | 60 | 40 | 25 | > 100 | 63 | 72 | 72 | 14 | IC50 [20]: > 100 µM; IC50 [21]: 100 µM; EC50 [22]: > 100 µM; IC50 ([15]; run with Parainfluenza Type 3 Virus): 11 µM; EC50 [23]: > 100 µM; EC50 [24]: > 100 µM; EC50 [25]: 100 µM; IC50 [26]: 60 µM |

Reference: patent EP1169036B1, “ANTI-VIRAL USES OF LEFLUNOMIDE PRODUCTS” (priority 1998, dated 1999)
